Measured values reported in patent US11249100B2, “Modular robotic systems for delivering fluid to microfluidic devices” (Worcester Polytechnic Institute, priority 2018, dated 2022).
Entries after “also recorded” stand apart in the source; their conditions may differ.

Legend:
[1] = tested on: ASER chemosensory neuron; conditions: ASER::GCaMP; downshift from base 40 mM NaCl; triplicate pulses
Protocol: Salt solutions (0-40 mM) were prepared by diluting S. Basal buffer (100 mM NaCl) with an iso-osmotic buffer of 186 mM glycerol.
Either the input stimulus (in, fluorescein for visualization) or buffer can bathe the animals depending on which control channel flows (c1 for input, c2 for buffer). […] Triplicate pulses (10 s) are delivered once per minute at a given concentration, followed by an increase in concentration with a delay of ˜45 s.
Animals expressing GCaMP in the ASER chemosensory neuron, which responds to salt downshifts, were stimulated with triplicate repeat pulses of NaCl, decreasing from a base 40 mM NaCl to a variable level from 40 mM (0 change) to 0 mM (−40 mM change).

[2] = tested on: AWA chemosensory neurons; assay: Automated solvent screen: optogenetically (Chrimson) evoked GCaMP calcium responses in living nematodes; type: in vivo, C. elegans; conditions: for effect on peak fluorescent responses to Chrimson-induced activation: <1 min exposure, compared to prior buffer control, 20 young adult animals; for persistence of suppression after returning to buffer fluid: alternating buffer control wells after solvent wells
Protocol: The C. elegans strain NZ1091 was integrated by irradiation and backcrossed at least 10×. Animals were grown and maintained at 20° C. on NGM plates with OP50 E. coli bacteria. At least 12 hrs prior to experimentation, L4 stage C. elegans were picked and transferred to 50 μM All Trans Retinal (ATR) in OP50 E. coli spotted onto an unseeded NGM plate. For the dose response experiment, C. elegans were selected as L4s the day before and tested as young adults the next day.
All solvents were prepared in Eppendorf tubes at 1% and 5% v/v concentrations to 1 mL in paralysis buffer (S. Basal buffer without cholesterol containing the acetylcholine agonist 1 mM (−)-tetramisole hydrochloride) and vortexed to mix for 30 s-1 min. Solvent dilutions were transferred to a 96 deep well plate (700µL/well). Alternating control wells were filled with 100 ng/mL fluorescein in paralysis buffer to visualize alternating solution delivery. Animals were exposed to paralysis buffer flow for ˜1-2 hrs prior to solvent delivery to keep animals stationary during recording. The 96 well plate was loaded with solvent solutions by hand the hour before recording and sealed with adhesive film (Glad® Press-n-Seal).
Methods followed those described previously. About 20-30 animals co-expressing GCaMP and Chrimson in the AWA chemosensory neuron pair were loaded into a modified high-throughput microfluidic imaging device optimized for 4× magnification with only the inlet, back pressure, worm loading, and outlet port(s) punched. Optical configurations were customized using an ASI RAMM frame and commercially available components for low-magnification wide-filed GCaMP excitation (4×/0.28 NA), compatible with Chrimson excitation, and high-resolution (1024×1024) 10 fps image acquisition. In addition to the optical set up described above, a 617 nm Mightex LED was mounted beneath the RAMM stage with an additional cube housing a 590 LP excitation dichroic to pass uniform Chrimson activation across the entire field of view. At each inlet well position, animals were exposed to solution for <1 min total, during which a 30 s delay was programmed to sufficiently fill the tubing after each well transfer for serially delivered solutions. Then, an immediate acquisition of 15 s (10 frames/s, 10 ms blue light pulse, 10 ms delay, 2×2 binning) began with a 617 nm light presence for 5 s (from 2.5 s to 7.5 s). Custom scripts were used for quantifying neuron fluorescence (Neurotracker ImageJ macro) and MATLAB17a for data analysis and visualization.
The robotic system was used to screen 14 different solvents at two concentrations (1% and 5%) for their effects on optogenetically-evoked neural responses. Solvent dilutions were prepared in a 96-well plate alternating with buffer control wells (FIG. 8A). A previously established high-throughput imaging device was used to record calcium signals from individual neurons of 20-25 young adult animals (FIG. 8B). Animals co-expressed the red-shifted channelrhodopsin (Chrimson) and the genetically encoded calcium sensor (GCaMP2.2b) in the AWA chemosensory neurons (FIG. 8C), allowing simultaneous optical stimulation and monitoring of neural responses.

[3] = tested on: AWA chemosensory neurons; assay: Automated diacetyl odor dose response, GCaMP calcium imaging; type: in vivo, C. elegans
[4] = 5% v/v solvent in paralysis buffer
[5] = 1% v/v solvent in paralysis buffer

SMILES | effect on peak fluorescent responses to Chrimson-induced activation [2, 4] | persistence of suppression after returning to buffer fluid [2] | effect on peak fluorescent responses to Chrimson-induced activation [2, 5] | also measured
[Cl-].[Na+] [NaCl] | – | – | – | NaCl shift giving a minimal but robust response in ASE [1]: shift from 40 mM to 35 mM
CC#N [acetonitrile] | significantly suppressed; also recorded: most significant suppressive effects | transient | – | –
CN(C)C=O [DMF] | – | – | weaker suppressive effects | –
CC(C)O [isopropanol] | significantly suppressed; also recorded: most significant suppressive effects | transient | significantly suppressed | effect on optogenetically-evoked neural responses ([2]; solvents at 1% and 5%, concentration not separated): suppression of optogenetic stimulation
C[S+](C)[O-] [DMSO] | – | – | variable and weakly suppressed responses; also recorded: weaker suppressive effects | –
CC(C)=O [acetone] | weaker suppressive effects | – | – | –
CC(=O)C(C)=O [diacetyl] | – | – | – | diacetyl concentration giving a minimal but robust odor response in AWA ([3]; AWA::GCaMP young adults, triplicate odor pulses once per minute): 0.1 µM; odor-evoked neural responses versus concentration ([3]; AWA::GCaMP, diacetyl from 0.1 μM to 1 mM): strengthened with increasing odor concentration
CO [methanol] | significantly suppressed; also recorded: most significant suppressive effects | transient | significantly suppressed | –
CCO [ethanol] | variable and weakly suppressed responses; also recorded: most significant suppressive effects | – | – | –
